Like-named read-outs stand apart in the source and are kept apart here.
Columns and labels:
[1] = molecular target: T1, Recombinant human FAP (Homo sapiens, UniProt Q12884); test: FAP inhibition assay (IC50, Z-Gly-Pro-AMC substrate); assay type: biochemical; details: for IC50: mean with standard deviation, n = 3; for Selectivitiy Index (FAP/PREP): ratio of PREP IC50 and FAP IC50
T1 construct: made in house
T1 sequence (Q12884 1-760): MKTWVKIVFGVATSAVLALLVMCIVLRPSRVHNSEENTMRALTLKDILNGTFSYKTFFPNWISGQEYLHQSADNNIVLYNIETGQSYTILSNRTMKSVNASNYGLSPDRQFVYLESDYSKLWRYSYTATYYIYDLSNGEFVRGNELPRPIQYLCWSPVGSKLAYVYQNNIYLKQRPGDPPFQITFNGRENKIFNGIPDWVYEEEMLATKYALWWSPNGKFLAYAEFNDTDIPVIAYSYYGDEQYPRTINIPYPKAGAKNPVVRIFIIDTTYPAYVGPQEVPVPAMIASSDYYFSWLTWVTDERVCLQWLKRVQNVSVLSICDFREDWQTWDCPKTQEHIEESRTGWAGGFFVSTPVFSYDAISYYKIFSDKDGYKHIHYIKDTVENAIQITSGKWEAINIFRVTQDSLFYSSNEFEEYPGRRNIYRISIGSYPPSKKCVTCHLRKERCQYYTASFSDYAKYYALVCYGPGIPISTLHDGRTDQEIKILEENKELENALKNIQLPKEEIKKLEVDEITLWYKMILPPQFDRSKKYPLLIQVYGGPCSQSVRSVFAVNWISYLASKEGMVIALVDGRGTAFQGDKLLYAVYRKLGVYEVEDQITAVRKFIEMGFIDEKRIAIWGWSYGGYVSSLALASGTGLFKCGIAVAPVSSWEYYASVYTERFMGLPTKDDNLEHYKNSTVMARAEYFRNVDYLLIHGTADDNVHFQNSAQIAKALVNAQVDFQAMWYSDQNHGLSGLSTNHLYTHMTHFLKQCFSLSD
Description: (§1) Enzymes: Recombinant human FAP and PREP were expressed and purified as published. Recombinant human dipeptidyl 9 (DPP9) was purified as described by De Decker et al.. Human dipeptidyl peptidase 4 was purified from seminal plasma as published.
(§2) IC50 measurements and counter-screening: IC50-measurements of the probes for FAP and PREP were carried out as published, using, respectively, Z-Gly-Pro-AMC and Suc-Gly-Pro-AMC as the substrate. IC50 experiments were repeated in triplicate, and the results are presented as mean ± standard deviation. Methods and data fitting were performed as published earlier. Screening against DPP4 and DPP9 was performed at final probe concentrations of 10 µM and 1 µM using Ala-Pro-paranitroanilide (pNA) as the substrate at the respective final concentrations of 25 μM (DPP4) and 150 μM (DPP9) at pH 7.4 (0.05 M HEPES-NaOH buffer with 0.1% Tween-20, 0.1 mg/mL BSA, and 150 mM NaCl). Probes were pre-incubated with the respective enzyme for 15 min at 37 °C; afterwards, the substrate was added, and the velocities of pNA release were measured kinetically at 405 nm for at least 10 min at 37 °C. Measurements were executed using the Infinite 200 (Tecan Group Ltd., Mennendorf, Switzerland), and the Magellan software was used to process the data.

[2] = molecular target: T2, Recombinant human PREP (Homo sapiens, UniProt P48147); test: PREP inhibition assay (IC50, Suc-Gly-Pro-AMC substrate); assay type: biochemical; details: mean with standard deviation, n = 3
T2 construct: made in house
T2 sequence (P48147 1-710): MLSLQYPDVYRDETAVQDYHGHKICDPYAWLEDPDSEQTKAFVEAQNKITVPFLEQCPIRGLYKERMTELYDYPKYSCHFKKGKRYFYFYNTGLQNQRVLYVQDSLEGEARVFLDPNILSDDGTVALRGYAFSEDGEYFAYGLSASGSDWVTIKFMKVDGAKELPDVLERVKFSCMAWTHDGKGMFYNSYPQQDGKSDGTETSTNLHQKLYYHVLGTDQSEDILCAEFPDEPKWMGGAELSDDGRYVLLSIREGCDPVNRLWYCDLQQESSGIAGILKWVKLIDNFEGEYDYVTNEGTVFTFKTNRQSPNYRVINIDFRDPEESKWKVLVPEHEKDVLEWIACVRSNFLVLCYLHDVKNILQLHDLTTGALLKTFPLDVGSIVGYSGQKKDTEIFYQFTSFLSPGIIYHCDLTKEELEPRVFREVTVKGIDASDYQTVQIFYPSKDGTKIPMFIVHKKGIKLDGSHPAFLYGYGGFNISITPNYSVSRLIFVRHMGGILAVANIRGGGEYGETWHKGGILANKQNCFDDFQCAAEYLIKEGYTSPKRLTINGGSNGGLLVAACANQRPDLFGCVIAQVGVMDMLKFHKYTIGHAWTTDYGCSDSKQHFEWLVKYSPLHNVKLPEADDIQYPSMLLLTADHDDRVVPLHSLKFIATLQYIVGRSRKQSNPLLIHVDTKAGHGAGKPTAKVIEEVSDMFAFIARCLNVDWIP
Description: as §1, §2

[3] = test system: DPPs (DPP4 and DPP9); test: Counter-screening against DPP4 and DPP9 (Ala-Pro-pNA substrate); assay type: biochemical, human; details: screened at 10 µM and 1 µM, reported as >1 µM if remaining activity more than 50% at 1 µM, n = 2
Description: as §1, §2

[4] = Stability of radiolabelled complexes in human serum; assay type: in vitro ADME; details: human serum (HS), 37 °C
Description: (§3) Labeling was carried out with 100–150 MBq gallium-68 in 300 µL of 1 M ammonium acetate (AmAc) buffer pH 5.5 and with 30–40 MBq scandium-44 in 1 mL of 0.25 M AmAc pH 4.0, and aliquots were taken at 1, 3, 5, 10, and 15 min. For lutetium-177, activity of 30–40 MBq in 300 µL of 1 M AmAc pH 5.5 was used, and aliquots were taken at 1, 3, 5, 15, 30, and 60 min. Stability was tested in 500 µL of human serum, phosphate-buffered saline, ethanol, and saline (0.9% isotonic NaCl solution) using ~5 MBq of tracer solution with >95% radiochemical purity. […] HS (human male AB plasma, USA origin) and PBS were purchased from Sigma Aldrich, and 0.9% saline from B. Braun Melsungen AG (Melsungen, Germany).

[5] = Stability of radiolabelled complexes in PBS, saline (NaCl) and ethanol; assay type: physicochemical; details: 37 °C; for intact conjugate (stability): PBS and NaCl
Description: as §3

[6] = Lipophilicity (logD) by shake-flask method; assay type: physicochemical; details: pH = 7.4, 1-octanol/PBS
Description: Lipophilicity (logD value) was determined via the “shake-flask” method. For both precursors AAZTA^5.SA.FAPi and DOTA.SA.FAPi logD (pH = 7.4), values were measured for the ^68Ga- and ^44Sc complexes.
Lipophilicity of [^68Ga]Ga-AAZTA^5.SA.FAPi, [^44Sc]Sc-AAZTA^5.SA.FAPi and [^68Ga]Ga-DOTA.SA.FAPi was determined using the “shake-flask” methodology. After reaction of the precursor with the respective radionuclide, the reaction solution was adjusted to pH 7.4 with NaOH. Aliquots of ~5 MBq for the ^68Ga complexes and of ~3 MBq for the ^44Sc-complexed were taken and adjusted to a total volume of 700 μL with PBS (n= 4). 700 μL 1-octanol was added, and the solution was shaken for 2 min (1500 rpm). Afterwards, each tube was centrifuged for 2 min. 400 μL of the octanol- and PBS phases were pipetted in new tubes, and aliquots of each phase (3 µL of the PBS phase and 6 μL of the octanol phase) were measured via radio-TLC. The PBS phases were adjusted to 700 µL, and 700 μL octanol was added to each tube. The procedure was repeated twice. LogD values were calculated as the logarithm of the octanol/PBS ratio.

[7] = molecular target: T1, Recombinant human FAP; parameters: method as in Moon et al. [24]; details: mean with standard deviation; ref Moon et al. [24]; cited from earlier work
[8] = molecular target: T2, Recombinant human PREP; details: mean with standard deviation; ref Moon et al. [24]; cited from earlier work

N#C[C@@H]1CC(F)(F)CN1C(=O)CNC(=O)c1ccnc2ccc(OCCCCNc3c(NCCNC(=O)CCCCC4(N(CC(=O)[O-])CC(=O)[O-])CN(CC(=O)[O-])CCN(CC(=O)[O-])C4)c(=O)c3=O)cc12.[Lu+3] [[^natLu]Lu-AAZTA^5.SA.FAPi]
IC50 [1]: 0.55 ± 0.04 nM
Selectivitiy Index (FAP/PREP) [1]: 5818
IC50 [2]: 3200 ± 600 nM
IC50 [3]: > 1000 nM

N#C[C@@H]1CC(F)(F)CN1C(=O)CNC(=O)c1ccnc2ccc(OCCCCNc3c(NCCNC(=O)CCCCC4(N(CC(=O)[O-])CC(=O)[O-])CN(CC(=O)[O-])CCN(CC(=O)[O-])C4)c(=O)c3=O)cc12.[44Sc+3] [[^44Sc]Sc-AAZTA^5.SA.FAPi]
intact conjugate (stability) ([4]; 1 h): > 99%
intact conjugate (stability) ([4]; 8 h): > 97%
intact conjugate (stability) ([5]; 1 h): > 99%
intact conjugate (stability) ([5]; 8 h): > 99%
LogD7.4 [6]: −2.50 ± 0.11

N#C[C@@H]1CC(F)(F)CN1C(=O)CNC(=O)c1ccnc2ccc(OCCCCNc3c(NCCNC(=O)CN4CCN(CC(=O)[O-])CCN(CC(=O)[O-])CCN(CC(=O)[O-])CC4)c(=O)c3=O)cc12.[Lu+3] [[^natLu]Lu DOTA.SA.FAPi]
Selectivitiy Index (FAP/PREP) [1]: 3125
IC50 [3]: > 1000 nM
IC50 [7]: 0.8 ± 0.2 nM
IC50 [8]: 2500 ± 400 nM

N#C[C@@H]1CC(F)(F)CN1C(=O)CNC(=O)c1ccnc2ccc(OCCCCNc3c(NCCNC(=O)CN4CCN(CC(=O)[O-])CCN(CC(=O)[O-])CCN(CC(=O)[O-])CC4)c(=O)c3=O)cc12.[Ga+3] [[^natGa]Ga-DOTA.SA.FAPi]
Selectivitiy Index (FAP/PREP) [1]: 6214
IC50 [3]: > 1000 nM
IC50 [7]: 1.4 ± 0.2 nM
IC50 [8]: 8700 ± 900 nM

N#C[C@@H]1CC(F)(F)CN1C(=O)CNC(=O)c1ccnc2ccc(OCCCCNc3c(NCCNC(=O)CCCCC4(N(CC(=O)[O-])CC(=O)[O-])CN(CC(=O)[O-])CCN(CC(=O)[O-])C4)c(=O)c3=O)cc12.[Sc+3] [[^natSc]Sc-AAZTA^5.SA.FAPi]
IC50 [1]: 0.57 ± 0.04 nM
Selectivitiy Index (FAP/PREP) [1]: 6316
IC50 [2]: 3600 ± 800 nM
IC50 [3]: > 1000 nM

N#C[C@@H]1CC(F)(F)CN1C(=O)CNC(=O)c1ccnc2ccc(OCCCCNc3c(NCCNC(=O)CCCCC4(N(CC(=O)O)CC(=O)O)CN(CC(=O)O)CCN(CC(=O)O)C4)c(=O)c3=O)cc12 [AAZTA^5.SA.FAPi]
IC50 [1]: 0.56 ± 0.02 nM
Selectivitiy Index (FAP/PREP) [1]: 4286
IC50 [2]: 2400 ± 400 nM
IC50 [3]: > 1000 nM

N#C[C@@H]1CC(F)(F)CN1C(=O)CNC(=O)c1ccnc2ccc(OCCCCNc3c(NCCNC(=O)CCCCC4(N(CC(=O)[O-])CC(=O)[O-])CN(CC(=O)[O-])CCN(CC(=O)[O-])C4)c(=O)c3=O)cc12.[68Ga+3] [[^68Ga]Ga-AAZTA^5.SA.FAPi]
intact complexes (stability) ([4]; over 2 h): > 99.9%
intact complexes (stability) ([5]; ethanol (EtOH) and saline (NaCl), over 2 h): > 99.9%
LogD7.4 [6]: −2.53 ± 0.13

N#C[C@@H]1CC(F)(F)CN1C(=O)CNC(=O)c1ccnc2ccccc12 [UAMC1110-FAP inhibitor, reference compound]
IC50 [3]: > 10000 nM

CN(CC(=O)O)C1(CCCCC(=O)NCCNc2c(NCCCCOc3ccc4nccc(C(=O)NCC(=O)N5CC(F)(F)C[C@H]5C#N)c4c3)c(=O)c2=O)CN(CC(=O)O)CCN(CC(=O)O)C1 [DATA^5m.SA.FAPi, reference compound]
Selectivitiy Index (FAP/PREP) [1]: 2113
IC50 [7]: 0.8 ± 0.2 nM
IC50 [8]: 1700 ± 100 nM

N#C[C@@H]1CC(F)(F)CN1C(=O)CNC(=O)c1ccnc2ccc(OCCCCNc3c(NCCNC(=O)CCCCC4(N(CC(=O)[O-])CC(=O)[O-])CN(CC(=O)[O-])CCN(CC(=O)[O-])C4)c(=O)c3=O)cc12.[177Lu+3] [[^177Lu]Lu-AAZTA^5.SA.FAPi]
intact conjugate (stability) ([4]; 1 h): > 99%
intact conjugate (stability) ([4]; 3 h): > 98%
intact conjugate (stability) ([4]; 1 d): > 83%
intact conjugate (stability) ([4]; 2 d): > 64%
intact conjugate (stability) ([4]; 3 d): > 55%
intact conjugate (stability) ([5]; 2 d): > 99%
intact conjugate (stability) ([5]; 3 d): > 98%
intact conjugate (stability) ([5]; 10 days): > 95%

N#C[C@@H]1CC(F)(F)CN1C(=O)CNC(=O)c1ccnc2ccc(OCCCCNc3c(NCCNC(=O)CN4CCN(CC(=O)[O-])CCN(CC(=O)[O-])CCN(CC(=O)[O-])CC4)c(=O)c3=O)cc12.[44Sc+3] [[^44Sc]Sc-DOTA.SA.FAPi]
intact conjugate (stability) ([4]; 8 h): > 97%
intact conjugate (stability) ([5]; 8 h): > 97%

N#C[C@@H]1CC(F)(F)CN1C(=O)CNC(=O)c1ccnc2ccc(OCCCCNc3c(NCCNC(=O)CN4CCN(CC(=O)[O-])CCN(CC(=O)[O-])CCN(CC(=O)[O-])CC4)c(=O)c3=O)cc12.[177Lu+3] [[^177Lu]Lu-DOTA.SA.FAPi]
intact conjugate (stability) ([4]; 10 days): > 99%
intact conjugate (stability) ([5]; 3 d): > 98%
intact conjugate (stability) ([5]; 10 days): > 93%

— PMC8226449, “In Vitro Evaluation of the Squaramide-Conjugated Fibroblast Activation Protein Inhibitor-Based Agents AAZTA^5.SA.FAPi and DOTA.SA.FAPi” (Molecules, 2021)
